Measured values from patent US20240156817A1, “TREATMENTS FOR PAIN” (Sevenless Therapeutics Limited, priority 2021, published 2024).

Experiments:
[1] = test system: CFA-(Complete Freunds Adjuvant) induced hypersensitivity; assay: CFA-induced hypersensitivity using weight-bearing in the C57BI6 mouse; assay type: in vivo
Method: On 3 days before CFA dose: habituation to WB apparatus, baseline readings are taken once. 24 h before dosing: intraplantar injection of 20 μl of CFA 1.5 mg/ml to the left hind paw. 1 h before dosing: post-CFA readings are taken for WB. […] Naive animals distribute their body weight equally between the two hind paws. However, when a painful insult is given to one hindpaw (i.e., sciatic nerve constriction or CFA intraplantar injection), the weight is re-distributed so that less weight is put on the affected paw (with a decrease in weight bearing on the injured paw). Animals were placed in the incapacitance tester (Linton Instruments, UK) with the hind paws on separate sensors. The average forces exerted by the left and the right hindlimb were recorded over 2 s. Weight-bearing readings were taken for both left and right hind paws. The ratio ipsilateral/contralateral was calculated and expressed in % (mean±s.e.m.). Statistics: Two-Way RM Mixed model (treatment×repeated factor: time) (InVivoStat v3.7.0.0)

[2] = test system: Nerve Growth Factor (NGF) stimulated phospho-ERK1/2 activation in PC-12 cells; assay: Inhibition of NGF stimulated pERK1/2 activation in the PC-12 cell line (HTRF), alone and combined with anti-NGF; assay type: cell-based, rat
Method: Homogeneous Time-Resolved Fluorescence (HTRF) assay:
Reagents from the HTRF commercial kit (Cisbio) were prepared according to the manufacturer's instructions.
PC-12 cells were isolated from routine cellular culture and plated at an appropriate cell density in 384-well plates (typically 25,000 cells per well) for 24 hours under serum-starved conditions. […] Following the 30-minute compound pre-incubation, PC-12 cells were treated with NGF (titrations of NGF from 250 ng/mL to 10 ng/mL were tested), and subsequently incubated for a 5-minute period (37° C./5% CO2). […] A 2-hour incubation at room temperature was performed prior to fluorescence signal determination using a microplate reader (PHERAstar FSX, BMG Labtech).
Percentage inhibition values were calculated per compound concentration by normalising the sample data to the high and low controls used within each plate (+/−25 ng/mLNGF respectively). […]
PC-12 cells were isolated from routine cellular culture and plated at an appropriate cell density (typically 25,000 cells per well) in 384-well plates for 24 hours under serum-starved conditions. […] A 2-hour incubation at room temperature was performed prior to fluorescence signal being measured in a microplate reader (PHERAstar FSX, BMG Labtech). […]

[3] = test system: pain models (knee osteoarthritis pain, arthritic joint, auto-immune arthritis); details: rats as printed; cited papers say mouse; cited from earlier work

## Tanezumab: an anti-NGF antibody, pain drug candidate
[1]; Tanezumab 3 mg/kg, DRUG TREATED 0.5 h (approx)
  weight-bearing, ratio ipsilateral/contralateral (mean): 82.54%
[1]; Tanezumab 3 mg/kg, DRUG TREATED 8.5 h (approx)
  weight-bearing, ratio ipsilateral/contralateral (mean): 94.11%
[1]; Tanezumab 3 mg/kg, DRUG TREATED 24.5 h (approx)
  weight-bearing, ratio ipsilateral/contralateral (mean): 89.88%
[1]; Tanezumab 3 mg/kg, DRUG TREATED 32.5 h (approx)
  weight-bearing, ratio ipsilateral/contralateral (mean): 84.25%
[1]; combination study, Tanezumab 3 mg/kg i.p. alone, DRUG TREATED (d2 PM)
  weight-bearing, ratio ipsilateral/contralateral (mean): 99.84%
[2]; Tanezumab at a concentration of 50 nM
  efficacy: 90%
[2]; tanezumab at a concentration of 200 nM
  efficacy: 100%
[3]
  dose at which efficacy is shown (scientific literature): 10 mg/kg
